Assay [1] deals with PC3 cells. In words: XTT assay for cell viability, PC3 cells. Conditions: Homo sapiens, PC-3, cell viability. In kind it is cell-based, human. In outline: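 PC3 cells seeded at 1000 cells/well, grown 24 h, then exposed to serial dilutions of compound for 96 h. Viability read by XTT dye at 37° C, absorbance 465 nm. EC50 from sigmoidal dose-response fit.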
(In general: Tetrazolium dyes change colour on reduction, which living cells bring about.)

In assay [2] the test system is pS6RP(S235/236), PC3 cells. The experiment in a line: In-cell Western assay, pS6RP(S235/236) in PC3 cells. Format: cell-based, human. Conditions: Homo sapiens, PC-3, In-cell Western. As to the method: Cells from human prostate cancer cell line PC3 (American Type Culture Collection (ATCC), Manassas, Va. 20108 USA) were seeded at an optimal density of 22,000 cell/well in 96-well plates containing Ham's F12K medium (90 μL) and incubated overnight. The compound dilutions were carried out in 100% DMSO followed by a dilution in the medium. Test compounds were added in serial dilutions to the wells and incubated for 2 h. The cells were washed and fixed with 4% paraformaldehyde. After incubation at room temperature for 1 h in the dark, blocking was done for 2 h at room temperature. Primary antibodies for phosphorylated (p) AKT(5473) (phosphorylated at serine 473), pAKT(T308) (phosphorylated at threonine 308) and for pS6RP(S235/236) (phosphorylated at serine 235/236) (commercially available from Cell Signaling Technology®, whose protocol was followed for the in-cell western assay, were diluted to the required concentration and added to the corresponding wells followed by overnight incubation at 4° C. Eu-labeled rabbit (PE) (Perkin-Elmer USA catalog #AD0106) secondary antibody was added and incubated for 2 h at room temperature. Delfia® enhancement solution (cat #1244-105, Perkin Elmer USA) was subsequently added to the plate before taking the reading at 615 nm with excitation wavelength of 340 nm, after which 0.5 μg/mL of Hoechst® 33258 dye (Catalog #86140-5, Sigma) was added to the plate and fluorescence emission was read at 460 nm with 355 nm excitation, to evaluate the correction factor. IC50 values were calculated using a sigmoidal dose-response curve fit in GraphPad Prism® v5 software.

Assay [3] has as its target T1, mTOR kinase (Homo sapiens, UniProt P42345).
T1 construct: purchased Millipore, USA
In words: mTOR kinase TR-FRET assay. The note with it: read-out: mTO R. Format: biochemical. The method, boiled down:
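Compounds preincubated 60 min with mTOR (5 ng) in HEPES pH 7.5, EGTA, MnCl2; ULight-p70 S6K Thr389 peptide (50 nM) and ATP (20 μM) then added, 60 min at room temperature. EDTA-stopped, Eu-anti-phospho antibody detection by TR-FRET (665/615 nm); IC50 from variable-slope sigmoidal fit.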
A general note: In TR-FRET formats the signal depends on donor and acceptor labels being close together.

For assay [4], the target named is T2, PI3Kα (wild-type), P110/P85α (Homo sapiens, UniProt P42336).
T2 construct: made in house; host or cells: SF9 insect cells
The experiment in a line: PI3 Kinase TR-FRET assay, PI3Kα (wild-type). In kind it is biochemical. In outline: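 Sf9-expressed His-purified P110/P85α (5 ng) preincubated 60 min RT with compound and PIP2 in buffer with 40 mM MgCl2, 5 mM DTT; reaction started with ATP (PIP2 and ATP both 10 μM), 30 min RT. PIP3 detected by TR-FRET displacement, 665/615 nm ratio; IC50 from dose-response curves.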

16 compounds from patent publication US9115092B2, “Substituted quinazoline and pyrido-pyrimidine derivatives” (Asana Biosciences, LLC, priority 2010, dated 2015) can be followed below.

T2 sequence (P42336 whole entry): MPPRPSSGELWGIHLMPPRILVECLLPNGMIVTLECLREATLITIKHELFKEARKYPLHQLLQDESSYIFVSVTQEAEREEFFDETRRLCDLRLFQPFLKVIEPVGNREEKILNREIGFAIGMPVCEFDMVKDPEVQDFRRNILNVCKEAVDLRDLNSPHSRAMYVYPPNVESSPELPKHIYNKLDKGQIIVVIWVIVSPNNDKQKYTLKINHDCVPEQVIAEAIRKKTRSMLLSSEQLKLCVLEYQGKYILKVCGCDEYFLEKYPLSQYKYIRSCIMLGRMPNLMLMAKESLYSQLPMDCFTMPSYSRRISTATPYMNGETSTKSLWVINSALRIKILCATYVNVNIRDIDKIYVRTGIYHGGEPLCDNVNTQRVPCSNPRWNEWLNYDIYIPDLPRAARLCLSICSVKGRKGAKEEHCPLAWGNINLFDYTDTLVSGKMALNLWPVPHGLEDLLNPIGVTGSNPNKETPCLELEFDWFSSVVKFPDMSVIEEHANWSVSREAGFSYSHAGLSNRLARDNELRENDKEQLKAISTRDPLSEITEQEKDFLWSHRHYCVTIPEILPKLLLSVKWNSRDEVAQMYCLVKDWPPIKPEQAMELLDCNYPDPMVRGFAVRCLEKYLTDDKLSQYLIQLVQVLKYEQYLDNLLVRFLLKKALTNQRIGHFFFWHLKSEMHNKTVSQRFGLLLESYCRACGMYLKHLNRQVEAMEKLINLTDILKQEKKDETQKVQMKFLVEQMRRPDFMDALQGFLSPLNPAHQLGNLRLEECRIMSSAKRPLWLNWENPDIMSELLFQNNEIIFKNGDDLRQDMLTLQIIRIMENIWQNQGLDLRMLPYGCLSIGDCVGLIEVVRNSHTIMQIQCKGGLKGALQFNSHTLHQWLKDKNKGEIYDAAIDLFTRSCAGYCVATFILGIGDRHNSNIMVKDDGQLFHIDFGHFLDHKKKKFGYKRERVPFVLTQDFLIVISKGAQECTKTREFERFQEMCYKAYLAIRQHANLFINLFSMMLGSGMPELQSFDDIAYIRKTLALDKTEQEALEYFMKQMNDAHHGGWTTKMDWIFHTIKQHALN
T2 sequence (P27986 whole entry partner): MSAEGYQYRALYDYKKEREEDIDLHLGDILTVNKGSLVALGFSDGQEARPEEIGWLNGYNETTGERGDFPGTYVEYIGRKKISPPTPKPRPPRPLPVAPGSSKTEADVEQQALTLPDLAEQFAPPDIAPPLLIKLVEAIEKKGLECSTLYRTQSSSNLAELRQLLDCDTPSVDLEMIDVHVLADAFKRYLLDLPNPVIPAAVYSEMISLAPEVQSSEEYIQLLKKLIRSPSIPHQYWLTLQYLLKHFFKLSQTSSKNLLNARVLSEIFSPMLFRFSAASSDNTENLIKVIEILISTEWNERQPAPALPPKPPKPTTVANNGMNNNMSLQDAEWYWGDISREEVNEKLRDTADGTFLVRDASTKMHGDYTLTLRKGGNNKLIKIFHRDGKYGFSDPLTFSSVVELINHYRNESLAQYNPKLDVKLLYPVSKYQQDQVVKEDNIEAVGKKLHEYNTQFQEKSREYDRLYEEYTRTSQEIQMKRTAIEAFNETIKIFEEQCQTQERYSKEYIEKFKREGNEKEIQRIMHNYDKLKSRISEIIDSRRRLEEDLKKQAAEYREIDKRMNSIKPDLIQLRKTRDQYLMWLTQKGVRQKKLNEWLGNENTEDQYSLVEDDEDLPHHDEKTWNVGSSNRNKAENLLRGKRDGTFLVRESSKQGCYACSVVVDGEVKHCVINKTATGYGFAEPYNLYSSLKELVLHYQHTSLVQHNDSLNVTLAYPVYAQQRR

On to `CN(C)C(=O)c1ccc(NC(=O)Nc2ccc(-c3nc(N4CCOCC4)c4cccc(-c5cccnc5F)c4n3)cc2)cc1` [Example 40, 4-(3-{4-[8-(2-fluoro-pyridin-3-yl)-4-morpholin-4-yl-quinazolin-2-yl]-phenyl}-ureido)-N,N-dimethyl-benzamide], for which the IC50 in assay [1] was 100 to 500 nM; in assay [2], below 100 nM; in assay [3] it was below 50 nM; in assay [4], 50 to 200 nM.

With `CC(O)c1ccc(-c2cnc3c(N4CCOCC4)nc(-c4ccc(NC(=O)Nc5ccc(C(=O)N(C)C)cc5)cc4)nc3c2)o1` (stereo not shown) [Example 216, 4-(3-(4-(7-(5-(1-hydroxyethyl)furan-2-yl)-4-morpholino-pyrido[3,2-d]pyrimidin-2-yl)phenyl)ureido)-N,N-dimethyl-benzamide], the IC50 in assay [1] was 201 to 10000 nM; in assay [2], 201 to 10000 nM; in assay [3] it was below 50 nM; in assay [4], below 50 nM.

Turning to `CN(C)C(=O)c1ccc(NC(=O)Nc2ccc(-c3nc(N4CCOCC4)c4ccc(-c5ccnnc5)cc4n3)cc2)cc1` [Example 86, N,N-dimethyl-4-(3-(4-(4-morpholino-7-(pyridazin-4-yl)quinazolin-2-yl)phenyl)ureido)-benzamide], the IC50 in assay [1] is 201 to 10000 nM; in assay [2], 201 to 10000 nM; in assay [3], below 50 nM; in assay [4], 50 to 200 nM.

`CN(C)C1CCN(C(=O)c2ccc(NC(=O)Nc3ccc(-c4nc(N5CCOCC5)c5ccc(-c6cncnc6)cc5n4)cc3F)cc2)C1` (stereo in doubt) [Example 207, (S)-1-(4-(3-(dimethylamino)pyrrolidine-1-carbonyl)phenyl)-3-(2-fluoro-4-(4-morpholino-7-(pyrimidin-5-yl)quinazolin-2-yl)phenyl)urea]: the IC50 in assay [1] was below 100 nM; in assay [2], 201 to 10000 nM; in assay [3], below 50 nM; in assay [4], below 50 nM.

Consider `Cc1ccncc1-c1ccc2c(N3CCOCC3)nc(-c3ccc(NC(=O)Nc4ccc(C(=O)N(C)C)cc4)c(F)c3)nc2c1` [Example 100, 4-(3-(2-fluoro-4-(7-(4-methylpyridin-3-yl)-4-morpholino-quinazolin-2-yl)phenyl)ureido)-N,N-dimethyl-benzamide], for which the IC50 in assay [1] was 201 to 10000 nM; in assay [2], 201 to 10000 nM; in assay [3], below 50 nM; in assay [4], below 50 nM.

As to `CN(C)C(=O)c1ccc(NC(=O)Nc2ccc(-c3nc(N4CCOCC4)c4ncc(-c5cccnc5)cc4n3)cc2F)cc1` [Example 102, 4-(3-(2-fluoro-4-(4-morpholino-7-(pyridin-3-yl)pyrido[3,2-d]pyrimidin-2-yl)phenyl)ureido)-N,N-dimethyl-benzamide], the IC50 was 201 to 10000 nM in assay [1], 201 to 10000 nM in assay [2], below 50 nM in assay [3] and below 50 nM in assay [4].

Regarding `CN(C)C(=O)c1ccc(NC(=O)Nc2ccc(-c3nc(N4CCOCC4)c4ncc(-c5cccnc5F)cc4n3)cc2F)cc1` [Example 106, 4-(3-(2-fluoro-4-(7-(2-fluoropyridin-3-yl)-4-morpholino-pyrido[3,2-d]pyrimidin-2-yl)phenyl)ureido)-N,N-dimethyl-benzamide], the IC50 is 201 to 10000 nM in assay [1], 201 to 10000 nM in assay [2], below 50 nM in assay [3] and below 50 nM in assay [4].

With `CN(C)C(=O)c1ccc(NC(=O)Nc2ccc(-c3nc(N4CCOCC4)c4ccc(-c5cncnc5)cc4n3)cc2F)cc1` [Example 84, 4-(3-(2-fluoro-4-(4-morpholino-7-(pyrimidin-5-yl)quinazolin-2-yl)phenyl)ureido)-N,N-dimethyl-benzamide], the IC50 in assay [1] is 201 to 10000 nM; in assay [2] it was 201 to 10000 nM; in assay [3] it was below 50 nM; in assay [4], 50 to 200 nM.

Take `Cc1noc(C)c1-c1ccc2c(N3CCOCC3)nc(-c3ccc(NC(=O)Nc4ccc(C(=O)N5CCC(N(C)C)C5)cc4)cc3)nc2c1` (stereo in doubt) [Example 220, (S)-1-(4-(3-(dimethylamino)pyrrolidine-1-carbonyl)phenyl)-3-(4-(7-(3,5-dimethylisoxazol-4-yl)-4-morpholino-quinazolin-2-yl)phenyl)urea]: the IC50 in assay [1] is 201 to 10000 nM; in assay [2], 201 to 10000 nM; in assay [3], below 50 nM; in assay [4], 50 to 200 nM.

Take `CN(C)C(=O)c1ccc(NC(=O)Nc2ccc(-c3nc(N4CCOCC4)c4ccc(-c5ccco5)cc4n3)c(F)c2)cc1` [Example 247, 4-(3-(3-fluoro-4-(7-(furan-2-yl)-4-morpholino-quinazolin-2-yl)phenyl)ureido)-N,N-dimethyl-benzamide]: the IC50 in assay [1] lay in the range of 201 to 10000 nM; in assay [2], 201 to 10000 nM; in assay [3] it was 50 to 200 nM; in assay [4], 50 to 200 nM.

As to `CC(O)c1ccc(-c2ccc3c(N4CCOCC4)nc(-c4ccc(NC(=O)Nc5ccc(C(=O)N(C)C)cc5)cc4)nc3c2)o1` (stereo not shown) [Example 206, 4-(3-(4-(7-(5-(1-hydroxyethyl)furan-2-yl)-4-morpholino-quinazolin-2-yl)phenyl)ureido)-N,N-dimethyl-benzamide], the IC50 in assay [1] is 201 to 10000 nM; in assay [2], 201 to 10000 nM; in assay [3], below 50 nM; in assay [4], below 50 nM.

Consider `CN(C)C(=O)c1ccc(NC(=O)Nc2ccc(-c3nc(N4CCOCC4)c4ccc(-c5cnn(C)c5)cc4n3)cc2F)cc1` [Example 97, 4-(3-(2-fluoro-4-(7-(1-methyl-1H-pyrazol-4-yl)-4-morpholino-quinazolin-2-yl)phenyl)ureido)-N,N-dimethyl-benzamide], for which the IC50 is 201 to 10000 nM in assay [1], 201 to 10000 nM in assay [2], below 50 nM in assay [3] and below 50 nM in assay [4].

Take `CN(C)C1CCN(C(=O)c2ccc(NC(=O)Nc3ccc(-c4nc(N5CCOCC5)c5ccc(C(C)(C)O)cc5n4)cc3)cc2)C1` (stereo in doubt) [Example 289, (S)-1-(4-(3-(dimethylamino)pyrrolidine-1-carbonyl)phenyl)-3-(4-(7-(2-hydroxypropan-2-yl)-4-morpholino-quinazolin-2-yl)phenyl)urea]: the IC50 in assay [1] is 201 to 10000 nM; in assay [2], 201 to 10000 nM; in assay [3], below 50 nM; in assay [4], 50 to 200 nM.

In the case of `Cc1noc(C)c1-c1ccc2c(N3CCOCC3)nc(-c3ccc(NC(=O)Nc4ccc(C(=O)N(C)C)cc4)c(F)c3)nc2c1` [Example 131, 4-(3-(4-(7-(3,5-dimethylisoxazol-4-yl)-4-morpholino-quinazolin-2-yl)-2-fluorophenyl)ureido)-N,N-dimethyl-benzamide], the IC50 in assay [1] is 201 to 10000 nM; in assay [2] it was 201 to 10000 nM; in assay [3] it was 50 to 200 nM; in assay [4], below 50 nM.

Consider `CN(C)C(=O)c1ccc(NC(=O)Nc2ccc(-c3nc(N4CCOCC4)c4ccccc4n3)cc2)cc1` [Example 179, N,N-dimethyl-4-(3-(4-(4-morpholino-quinazolin-2-yl)phenyl)ureido)-benzamide], for which the IC50 is 201 to 10000 nM in assay [1], 201 to 10000 nM in assay [2], below 50 nM in assay [3] and 50 to 200 nM in assay [4].

As for `CN(C)CCn1cc(-c2ccc3c(N4CCOCC4)nc(-c4ccc(NC(=O)Nc5ccc(C(=O)N(C)C)cc5)cc4)nc3c2)cn1` [Example 83, 4-(3-(4-(7-(1-(2-(dimethylamino)ethyl)-1H-pyrazol-4-yl)-4-morpholino-quinazolin-2-yl)phenyl)ureido)-N,N-dimethyl-benzamide], the IC50 in assay [1] is 201 to 10000 nM; in assay [2] it was 201 to 10000 nM; in assay [3], below 50 nM; in assay [4], 50 to 200 nM.
